# Biological target: T1, sterol 14-reductase (Rattus norvegicus, UniProt A0ACM8Q6X4)
# T1 construct: microsome which was used as an enzyme source of sterol 14-reductase; from tissue; host or cells: liver microsomes of male Sprague-Dawley rats fed lovastatin and cholestyramine
# T1 sequence (A0ACM8Q6X4 1-418): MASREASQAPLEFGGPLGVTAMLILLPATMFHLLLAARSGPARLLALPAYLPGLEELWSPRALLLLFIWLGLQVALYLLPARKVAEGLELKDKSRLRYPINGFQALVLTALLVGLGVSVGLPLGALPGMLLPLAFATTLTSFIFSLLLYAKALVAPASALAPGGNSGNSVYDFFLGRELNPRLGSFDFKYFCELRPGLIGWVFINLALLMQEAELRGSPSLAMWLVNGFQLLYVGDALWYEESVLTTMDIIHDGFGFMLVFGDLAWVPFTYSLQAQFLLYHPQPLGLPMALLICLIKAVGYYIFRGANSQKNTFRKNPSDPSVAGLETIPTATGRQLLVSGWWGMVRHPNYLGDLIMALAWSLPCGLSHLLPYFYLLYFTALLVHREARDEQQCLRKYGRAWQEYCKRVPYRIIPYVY
# Assay: Inhibition of sterol 14-reductase in rat liver microsomes
# Assay type: biochemical
# Conditions: Enzyme Activity (relative in vitro activity for sterol 14-reductase, IC50 class)
# Procedure: 20 Male Sprague-Dawley rats weighing from 150 to 250 g have been fed for 7 days with a diet containing 0.1% (w/w) Lovastatin and 5% (w/w) Cholestyramine. The animals were fasted for 12 hours before excising liver tissues and then sacrificed by decapitation at midnight. An aqueous solution containing 0.25M of sucrose was injected into the hepatic portal vein to remove all the blood within the liver, and then, the liver was excised. The liver was homogenated with two volumes of buffer solution A (0.1M potassium phosphate, 1 mM reduced glutathione, 0.5 mM EDTA, 20% (v/v) glycerol, pH 7.4) by repeating pestles over 10 times and then, centrifuged with 900×g for 5 minutes to give a supernatant. The supernatant was centrifuged with 12,000×g for 20 minutes. The supernatant obtained was ultracentrifuged with 105,000×g for 90 minutes to give a microsome which was used as an enzyme source of sterol 14-reductase. Assay for sterol 14-reductase was carried out as follows:
# 60 mmol of 4,4-dimethyl-5α-cholesta-7,14-dien-3β-ol and 5,6-dihydrodibenzo-[a,g]quinolizinium salts (compound no. 2) dissolved in DMSO were added to an assay mixture (total volume 1.0 ml) containing 2 mg of the microsomal protein, 2 mM of NADPH and 25 mg of glucose plus 20 units of glucose oxidase with preincubations under nitrogen at 37° C. for 4 min. unless otherwise specified to establish anaerobic condition. Buffer A (0.1M potassium phosphate buffer, pH 7.4, including 1 mM reduced glutathione, 0.5 mM EDTA, and 20% (v/v) glycerol) used for incubation had been equilibrated with nitrogen, and nitrogen was exchanged for air in all sealed reaction flasks prior to the start of incubations. Incubation of the complete mixture was carried out anaerobically in sealed flasks for 10 min at 37° C. unless otherwise indicated. Incubations were terminated by the addition of 1 ml of ethanolic KOH followed by heating under reflux for 10 min. Sterols were extracted four times with 4 ml of petroleum ether, and the solvent was evaporated to dryness under a nitrogen stream. The resulting residue was dissolved in 200-500 μl of n-hexane for quantification by GLC at high sensitive attenuation. The activity of sterol 14-reductase was determined with the amount of the substrate wherein the double bonds of 14-carbon were reduced (for the amount reduced by 1 mg of the microsome protein for 1 minute).
row,SMILES,IC50 [µM]
1,"C=C(COc1c(OC)ccc2c(CC)c3[n+](cc12)CCc1cc(OC)c(OC)cc1-3)C[Si](C)(C)C [Compound No. 44, 5,6-dihydro-2,3-dimethoxybenzo[a]-13-ethyl-10-methoxy-9-[(3-trimethylsilyl)propen-2-yl]oxybenzo[g]quinolizinium chloride]",> 100

# Same assay, conditions: read-out: Enzyme Activity (relative in vitro activity for sterol 14-reductase, IC50 class)
row,SMILES,IC50 [µM]
1,"C=C(C)COc1c(OC)ccc2c(CC)c3[n+](cc12)CCc1cc(OC)c(OC)cc1-3 [Compound No. 41, 5,6-dihydro-2,3-dimethoxybenzo[a]-13-ethyl-10-methoxy-9-(2-methyl)propenoxybenzo[g]quinolizinium chloride]",> 100
2,"CCCOc1cc2c(cc1OCCC)-c1c(CC)c3ccc(OCCC)c(OCc4c(F)c(F)c(F)c(F)c4F)c3c[n+]1CC2 [Compound No. 67, 5,6-dihydro-2,3-dipropoxybenzo[a]-13-ethyl-9-(2,3,4,5,6-pentafluoro)benzyloxy-10-propoxybenzo[g]quinolizinium chloride]",10 to 100
3,"CCc1c2[n+](cc3c(OCc4cc(OC)c(OC)c(OC)c4)c(OC)ccc13)CCc1cc(OC)c(OC)cc1-2 [Compound No. 37, 5,6-dihydro-2,3-dimethoxybenzo[a]-13-ethyl-10-methoxy-9-(3,4,5-trimethoxy)benzyloxybenzo[g]quinolizinium chloride]",> 100
4,"CCc1c2[n+](cc3c(OCc4ccc(Cl)nc4)c(OC)ccc13)CCc1cc3c(cc1-2)OCO3 [Compound No. 54, 5,6-dihydro-2,3-methylenedioxybenzo[a]-9-(6-chloropyridinyl-3-yl)methoxy-13-ethyl-10-methoxybenzo[g]quinolizinium iodide]",10 to 100
5,"CCc1c2[n+](cc3c(OCc4ccccc4C(F)(F)F)c(OC)ccc13)CCc1cc(OC)c(OC)cc1-2 [Compound No. 20, 5,6-dihydro-2,3-dimethoxybenzo[a]-13-ethyl-10-methoxy-9-(2-trifluoromethyl)benzyloxybenzo[g]quinolizinium chloride]",10 to 100
6,"CCCOc1cc2c(cc1OCCC)-c1c(CC)c3ccc(OCCC)c(OCc4ccc(C(C)(C)C)cc4)c3c[n+]1CC2 [Compound No. 66, 5,6-dihydro-2,3-dipropoxybenzo[a]-9-[4-(tert-butyl)benzyloxy]-13-ethyl-10-propoxybenzo[g]quinolizinium chloride]",10 to 100
7,"CCc1c2[n+](cc3c(OCc4cccc(Br)c4)c(OC)ccc13)CCc1cc(OC)c(OC)cc1-2 [Compound No. 34, 5,6-dihydro-2,3-dimethoxybenzo[a]-9-(3-bromo)-benzyloxy-13-ethyl-10-methoxybenzo[g]quinolizinium chloride]",10 to 100

# Now from value to molecule:
row,IC50 [µM],SMILES
1,10 to 100,"CCc1c2[n+](cc3c(OCc4c(F)cccc4Cl)c(OC)ccc13)CCc1cc(OC)c(OC)cc1-2 [Compound No. 23, 5,6-dihydro-2,3-dimethoxybenzo[a]-9-(2-chloro-6-fluoro)benzyloxy-13-ethyl-10-methoxybenzo[g]quinolizinium chloride]"
2,10 to 100,"CCc1c2[n+](cc3c(OCc4ccc(F)cc4C(F)(F)F)c(OC)ccc13)CCc1cc(OC)c(OC)cc1-2 [Compound No. 4, 5,6-dihydro-2,3-dimethoxybenzo[a]-13-ethyl-9-[4-fluoro-2-(trifluoromethyl)benzyloxy]-10-methoxybenzo[g]-quinolizinium chloride]"
3,> 100,"CCc1c2[n+](cc3c(OCc4cc(C)ccc4C)c(OC)ccc13)CCc1cc(OC)c(OC)cc1-2 [Compound No. 15, 5,6-dihydro-2,3-dimethoxybenzo[a]-9-(2,5-dimethyl)benzyloxy-13-ethyl-10-methoxybenzo[g]quinolizinium chloride]"
4,10 to 100,"CCc1c2[n+](cc3c(OCc4ccc(Cl)nc4)c(OC)ccc13)CCc1cc(OC)c(OC)cc1-2 [Compound No. 71, 5,6-dihydro-2,3-dimethoxybenzo[a]-9-(6-chloropyridine-3-yl)methoxy-13-ethyl-10-methoxybenzo-[g]quinolizinium nitrate]"
